In patent US10329309B2, “3-(3H-imidazo[4,5-B]pyridin-2-yl)-1H-pyrazolo[4,3-B]pyridines and therapeutic uses thereof” (Samumed, LLC, priority 2015, dated 2019):

Experiments:
[1] = tested on: primary human mesenchymal stem cells (hMSCs); assay: Induction of chondrogenesis in primary human mesenchymal stem cells (nodule imaging, Rhodamine B/Nile Red); format: cell-based; details: hMSC chondrogenesis; for Emax: TGF-β3 as positive control, read-out: Max. Activity as % TGF-β3 activity; for EC50: concentration required to induce 50% levels of chondrogenesis vs TGF-β3, read-out: Conc (nM) of 50% TGF-β3 activity
Method: Representative compounds were screened using primary human mesenchymal stem cells (hMSCs) to determine their ability to induce chondrogenesis (process by which cartilage is developed).
Primary human mesenchymal stem cells (hMSCs) were purchased from Lonza (Walkersville, Md.) and expanded in Mesenchymal Stem Cell Growth Media (Lonza). Cells between passage 3 and 6 were used for the experiments.
Each compound was dissolved in DMSO as a 10 mM stock and used to prepare compound source plates. For the 96 well assay, serial dilution (1:3, 6-point dose-response curves from 2700 nM to 10 nM) and compound transfer was performed using the ECHO 550 (Labcyte, Sunnyvale, Calif.) into 96-well clear bottom assay plates (Greiner Bio-One) with appropriate DMSO backfill for a final DMSO concentration of 0.03%. hMSCs were plated at 20,000 cells/well in 250 μL/well Incomplete Chondrogenic Induction Medium (Lonza; DMEM, dexamethasone, ascorbate, insulin-transferrin-selenium [ITS supplement], gentamycin-amphotericin [GA-1000], sodium pyruvate, proline and L-glutamine). TGF-−3 (10 ng/mL) was used as a positive control for differentiation while negative control wells were treated with 75 nL DMSO for normalization and calculating EC50 values. For the 384 well assay, serial dilution (1:3, 8-point dose-response curves from 5000 nM to 2.2 nM) and compound transfer was performed using the ECHO 550 (Labcyte, Sunnyvale, Calif.) into 384-well clear bottom assay plates (Greiner Bio-One) with appropriate DMSO backfill for a final DMSO concentration of 0.03%. hMSCs were plated at 8,000 cells/well in 80 μL/well Incomplete Chondrogenic Induction Medium (Lonza; DMEM, dexamethasone, ascorbate, insulin-transferrin-selenium [ITS supplement], gentamycin-amphotericin [GA-1000], sodium pyruvate, proline and L-glutamine). TGF-β3 (10 ng/mL) was used as a positive control for differentiation while negative control wells were treated with 25 nL DMSO for normalization and calculating EC50 values. Cells were incubated at 37° C. and 5% CO2 for 6 days. To image chondrogenic nodules, the cells were fixed using 4% formaldehyde (Electron Microscopy Sciences), and stained with 2 μg/mL Rhodamine B (Sigma-Aldrich) and 20 μM Nile Red (Sigma-Aldrich) [Johnson K., et. al, A Stem Cell-Based Approach to Cartilage Repair, Science, (2012), 336(6082), 717-721]. The nodules imaged (25 images per well for 96 well plates and 9 images per well for 384 well plates at 10× magnification) by excitation at 531 nm and emission at 625 nm and quantified using the CellInsight CX5 (Thermo Scientific). Area of nodules in each well was normalized to the average of 3 DMSO treated wells on the same plate using Excel (Microsoft Inc.). The normalized averages (fold change over DMSO) of 2 or 3 replicate wells for each compound concentration were calculated. Due to solubility limitations of some of the compounds, curve fitting was incomplete leading to inaccurate EC50 determinations.
Using TGF-β3 as a positive control, the concentration of representative compounds required to induce 50% levels of chondrogenesis is reported. In addition, the maximum activity of each compound and the respective dose that each compound reached maximum chondrogenesis activity is reported.

IL-6 (THP-1 cells) = assay: Inhibition of IL-6 in LPS-stimulated THP-1 monocytes (HTRF); format: cell-based; details: Homo sapiens; for EC50: LPS 500 ng/mL, IL-6 by HTRF; for inhibition at 10 µM: LPS stimulated, IL-6, at 10 μM, read-out: percent inhibition at 10 μM (given for EC50 of >10 μM)
Outline: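 THP-1 cells, serum-starved in 1% FBS for 24 h, were pre-incubated 2 h with compound (10-point, 1:3 from 10 μM, 0.1% DMSO), then stimulated with 500 ng/mL LPS for 22 h at 37 °C. IL-6 was quantified by HTRF 665/620 ratio. EC50 was fitted from DMSO-normalized data; above 10 μM, % inhibition at 10 μM is given.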

Structure (SMILES): CCC(=O)Nc1cncc(-c2ccc3[nH]nc(-c4nc5c(-c6cccc(F)c6)ccnc5[nH]4)c3n2)c1 [Compound 1, N-(5-(3-(7-(3-fluorophenyl)-3H-imidazo[4,5-b]pyridin-2-yl)-1H-pyrazolo [4,3-b]pyridin-5-yl)pyridin-3-yl)propionamide]
- Emax [1]: 29%
- EC50 (IL-6 (THP-1 cells)): > 10 µM
- inhibition at 10 µM (IL-6 (THP-1 cells)): 3.5%

Structure (SMILES): Fc1cccc(-c2ccnc3[nH]c(-c4n[nH]c5ccc(-c6ccncc6)nc45)nc23)c1 [Compound 18, 3-(7-(3-fluorophenyl)-3H-imidazo[4,5-b]pyridin-2-yl)-5-(pyridin-4-yl)-1H-pyrazolo[4,3-b]pyridine]
- Emax [1]: 42%
- EC50 (IL-6 (THP-1 cells)): > 10 µM
- inhibition at 10 µM (IL-6 (THP-1 cells)): 18.4%

Structure (SMILES): Fc1cccc(-c2ccnc3[nH]c(-c4n[nH]c5ccc(-c6cncc(CN7CCC(F)(F)C7)c6)nc45)nc23)c1 [Compound 26, 5-(5-((3,3-Difluoropyrrolidin-1-yl)methyl)pyridin-3-yl)-3-(7-(3-fluorophenyl)-3H-imidazo[4,5-b]pyridin-2-yl)-1H-pyrazolo[4,3-b]pyridine]
- Emax [1]: 247%
- EC50 [1]: 900 nM
- EC50 (IL-6 (THP-1 cells)): 0.985 µM

Structure (SMILES): CC(C)(C)C(=O)Nc1cncc(-c2ccc3[nH]nc(-c4nc5c(-c6ccc(F)cc6)ccnc5[nH]4)c3n2)c1 [Compound 36, N-(5-(3-(7-(4-fluorophenyl)-3H-imidazo[4,5-b]pyridin-2-yl)-1H-pyrazolo [4,3-b]pyridin-5-yl)pyridin-3-yl)pivalamide]
- Emax [1]: 63%
- EC50 [1]: 10 nM
- EC50 (IL-6 (THP-1 cells)): > 10 µM
- inhibition at 10 µM (IL-6 (THP-1 cells)): 19.2%

Structure (SMILES): Fc1ccc(-c2ccnc3[nH]c(-c4n[nH]c5ccc(-c6cncnc6)nc45)nc23)cc1 [Compound 55, 3-(7-(4-Fluorophenyl)-3H-imidazo[4,5-b]pyridin-2-yl)-5-(pyrimidin-5-yl)-1H-pyrazolo[4,3-b]pyridine]
- Emax [1]: 99%
- EC50 [1]: 30 nM
- EC50 (IL-6 (THP-1 cells)): > 10 µM
- inhibition at 10 µM (IL-6 (THP-1 cells)): 43.9%

Structure (SMILES): COc1cncc(-c2ccc3[nH]nc(-c4nc5c(-c6ccoc6)ccnc5[nH]4)c3n2)c1 [Compound 692, 3-(7-(Furan-3-yl)-3H-imidazo[4,5-b]pyridin-2-yl)-5-(5-methoxypyridin-3-yl)-1H-pyrazolo[4,3-b]pyridine]
- EC50 (IL-6 (THP-1 cells)): > 10 µM
- inhibition at 10 µM (IL-6 (THP-1 cells)): 39%

Structure (SMILES): Cn1cc(-c2ccc3[nH]nc(-c4nc5c(-c6cccs6)ccnc5[nH]4)c3n2)cn1 [Compound 700, 5-(1-Methyl-1H-pyrazol-4-yl)-3-(7-(thiophen-2-yl)-3H-imidazo[4,5-b]pyridin-2-yl)-1H-pyrazolo[4,3-b]pyridine]
- EC50 (IL-6 (THP-1 cells)): > 10 µM
- inhibition at 10 µM (IL-6 (THP-1 cells)): 0%

Structure (SMILES): CN(C)CCOc1cncc(-c2ccc3[nH]nc(-c4nc5c(-c6cccs6)ccnc5[nH]4)c3n2)c1 [Compound 707, N,N-Dimethyl-2-((5-(3-(7-(thiophen-2-yl)-3H-imidazo[4,5-b]pyridin-2-yl)-1H-pyrazolo[4,3-b]pyridin-5-yl)pyridin-3-yl)oxy)ethan-1-amine]
- EC50 (IL-6 (THP-1 cells)): > 10 µM
- inhibition at 10 µM (IL-6 (THP-1 cells)): 35.1%

Structure (SMILES): Cc1ccc(-c2ccnc3[nH]c(-c4n[nH]c5ccc(-c6cncc(OC7CCCCC7)c6)nc45)nc23)s1 [Compound 735, 5-(5-(Cyclohexyloxy)pyridin-3-yl)-3-(7-(5-methylthiophen-2-yl)-3H-imidazo[4,5-b]pyridin-2-yl)-1H-pyrazolo[4,3-b]pyridine]
- EC50 (IL-6 (THP-1 cells)): 1.79 µM

Structure (SMILES): Cn1cc(-c2ccc3[nH]nc(-c4nc5c(-c6cc(F)cc(CNS(C)(=O)=O)c6)ccnc5[nH]4)c3n2)cn1 [Compound 764, N-(3-Fluoro-5-(2-(5-(1-methyl-1H-pyrazol-4-yl)-1H-pyrazolo[4,3-b]pyridin-3-yl)-3H-imidazo[4,5-b]pyridin-7-yl)benzyl)methanesulfonamide]
- EC50 (IL-6 (THP-1 cells)): > 10 µM
- inhibition at 10 µM (IL-6 (THP-1 cells)): 24.2%

Structure (SMILES): CS(=O)(=O)NCc1cc(F)cc(-c2ccnc3[nH]c(-c4n[nH]c5ccc(-c6cncc(NC(=O)CC7CCNCC7)c6)nc45)nc23)c1 [Compound 769, N-(5-(3-(7-(3-Fluoro-5-(methylsulfonamidomethyl)phenyl)-3H-imidazo[4,5-b]pyridin-2-yl)-1H-pyrazolo[4,3-b]pyridin-5-yl)pyridin-3-yl)-2-(piperidin-4-yl)acetamide]
- EC50 (IL-6 (THP-1 cells)): 0.036 µM

Structure (SMILES): CN(C)CCNc1cc(F)cc(-c2ccnc3[nH]c(-c4n[nH]c5ccc(-c6cncc(OCCN7CCCC7)c6)nc45)nc23)c1 [Compound 786, N^1-(3-Fluoro-5-(2-(5-(5-(2-(pyrrolidin-1-yl)ethoxy)pyridin-3-yl)-1H-pyrazolo[4,3-b]pyridin-3-yl)-3H-imidazo[4,5-b]pyridin-7-yl)phenyl)-N^2,N^2-dimethylethane-1,2-diamine]
- EC50 (IL-6 (THP-1 cells)): > 10 µM
- inhibition at 10 µM (IL-6 (THP-1 cells)): 0%

Structure (SMILES): CN(C)CCNc1cc(F)cc(-c2ccnc3[nH]c(-c4n[nH]c5ccc(-c6cnccn6)nc45)nc23)c1 [Compound 792, N^1-(3-Fluoro-5-(2-(5-(pyrazin-2-yl)-1H-pyrazolo[4,3-b]pyridin-3-yl)-3H-imidazo[4,5-b]pyridin-7-yl)phenyl)-N^2,N^2-dimethylethane-1,2-diamine]
- EC50 (IL-6 (THP-1 cells)): > 10 µM
- inhibition at 10 µM (IL-6 (THP-1 cells)): 23.3%

Structure (SMILES): COc1cccc(-c2ccnc3[nH]c(-c4n[nH]c5ccc(-c6cncc(OC7CCNCC7)c6)nc45)nc23)c1 [Compound 1025, 3-(7-(3-Methoxyphenyl)-3H-imidazo[4,5-b]pyridin-2-yl)-5-(5-(piperidin-4-yloxy)pyridin-3-yl)-1H-pyrazolo[4,3-b]pyridine]
- EC50 (IL-6 (THP-1 cells)): > 10 µM
- inhibition at 10 µM (IL-6 (THP-1 cells)): 26.5%

Structure (SMILES): COc1cccc(-c2ccnc3[nH]c(-c4n[nH]c5ccc(-c6cncc(O)c6)nc45)nc23)c1 [Compound 1030, 5-(3-(7-(3-Methoxyphenyl)-3H-imidazo[4,5-b]pyridin-2-yl)-1H-pyrazolo [4,3-b]pyridin-5-yl)pyridin-3-ol]
- EC50 (IL-6 (THP-1 cells)): > 10 µM
- inhibition at 10 µM (IL-6 (THP-1 cells)): 40.9%

Structure (SMILES): c1cc(-c2ccc3c(c2)OCO3)c2nc(-c3n[nH]c4ccc(C5CCNCC5)nc34)[nH]c2n1 [Compound 1108, 3-(7-(Benzo[d][1,3]dioxol-5-yl)-3H-imidazo[4,5-b]pyridin-2-yl)-5-(piperidin-4-yl)-1H-pyrazolo[4,3-b]pyridine]
- EC50 (IL-6 (THP-1 cells)): > 10 µM
- inhibition at 10 µM (IL-6 (THP-1 cells)): 30.1%

Structure (SMILES): C1=C(c2ccc3[nH]nc(-c4nc5c(-c6ccc7c(c6)OCO7)ccnc5[nH]4)c3n2)CCNC1 [Compound 1109, 3-(7-(Benzo[d][1,3]dioxol-5-yl)-3H-imidazo[4,5-b]pyridin-2-yl)-5-(1,2,3,6-tetrahydropyridin-4-yl)-1H-pyrazolo[4,3-b]pyridine]
- EC50 (IL-6 (THP-1 cells)): > 10 µM
- inhibition at 10 µM (IL-6 (THP-1 cells)): 20.5%

Structure (SMILES): Cn1cc(-c2ccc3[nH]nc(-c4nc5c(-c6ccc(F)cc6)ccnc5[nH]4)c3n2)c(CO)n1 [Compound 1129, (4-(3-(7-(4-Fluorophenyl)-3H-imidazo[4,5-b]pyridin-2-yl)-1H-pyrazolo[4,3-b]pyridin-5-yl)-1-methyl-1H-pyrazol-3-yl)methanol]
- EC50 (IL-6 (THP-1 cells)): > 10 µM
- inhibition at 10 µM (IL-6 (THP-1 cells)): 24.8%

Structure (SMILES): Cn1cc(-c2ccc3[nH]nc(-c4nc5c(N6CCCCC6)ccnc5[nH]4)c3n2)c(CO)n1 [Compound 1134, (1-Methyl-4-(3-(7-(piperidin-1-yl)-3H-imidazo[4,5-b]pyridin-2-yl)-1H-pyrazolo[4,3-b]pyridin-5-yl)-1H-pyrazol-3-yl)methanol]
- EC50 (IL-6 (THP-1 cells)): > 10 µM
- inhibition at 10 µM (IL-6 (THP-1 cells)): 12.6%

Structure (SMILES): Cn1cc(-c2ccc3[nH]nc(-c4nc5c(-c6ccc7c(c6)OCO7)ccnc5[nH]4)c3n2)c(CO)n1 [Compound 1152, (4-(3-(7-(Benzo[d][1,3]dioxol-5-yl)-3H-imidazo[4,5-b]pyridin-2-yl)-1H-pyrazolo[4,3-b]pyridin-5-yl)-1-methyl-1H-pyrazol-3-yl)methanol]
- EC50 (IL-6 (THP-1 cells)): > 10 µM
- inhibition at 10 µM (IL-6 (THP-1 cells)): 28.4%
